Measured values as given in PMC12169610 (Journal of Medicinal Chemistry, 2025).
Read-outs that look alike come from different tables or passages of the source. Marks after values point to notes of the source that are not given here. One block for each molecule: values may come before it.

Key:
[1] = predicted from PK data across species
[2] = test system: fasted rat; test: Acute refeeding assay; type: in vivo; details: for Inhibition of Food Intake at 1 h (%), 5 mg/kg dose: 5 mg/kg PO
[3] = test system: P-gp; test: in vitro; type: in vitro ADME; details: pig, LLC-PK1
[4] = biological target: T1, 5-HT2CR (Homo sapiens, UniProt P28335); type: binding
T1 sequence (P28335 33-458): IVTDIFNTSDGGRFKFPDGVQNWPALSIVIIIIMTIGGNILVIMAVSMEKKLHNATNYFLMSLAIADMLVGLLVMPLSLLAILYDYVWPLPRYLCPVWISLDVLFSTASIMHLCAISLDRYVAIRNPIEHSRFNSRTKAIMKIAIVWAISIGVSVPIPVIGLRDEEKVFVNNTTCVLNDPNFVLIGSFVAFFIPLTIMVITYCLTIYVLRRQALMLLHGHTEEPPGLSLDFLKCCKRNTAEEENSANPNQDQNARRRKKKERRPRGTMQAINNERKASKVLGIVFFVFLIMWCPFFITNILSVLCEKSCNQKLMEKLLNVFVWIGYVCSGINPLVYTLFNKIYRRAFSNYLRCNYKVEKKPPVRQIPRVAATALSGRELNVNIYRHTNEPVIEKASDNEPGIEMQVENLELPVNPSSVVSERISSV

[5] = in vivo; details: cynomolgus monkey, iv, 2 mg/kg
[6] = biological target: CYP3A4 (Homo sapiens, UniProt P08684)
[7] = biological target: CYP2D6 (Homo sapiens, UniProt P10635)
[8] = biological target: T2, CYP1A2 (Homo sapiens, UniProt P05177)
T2 sequence (P05177 1-516): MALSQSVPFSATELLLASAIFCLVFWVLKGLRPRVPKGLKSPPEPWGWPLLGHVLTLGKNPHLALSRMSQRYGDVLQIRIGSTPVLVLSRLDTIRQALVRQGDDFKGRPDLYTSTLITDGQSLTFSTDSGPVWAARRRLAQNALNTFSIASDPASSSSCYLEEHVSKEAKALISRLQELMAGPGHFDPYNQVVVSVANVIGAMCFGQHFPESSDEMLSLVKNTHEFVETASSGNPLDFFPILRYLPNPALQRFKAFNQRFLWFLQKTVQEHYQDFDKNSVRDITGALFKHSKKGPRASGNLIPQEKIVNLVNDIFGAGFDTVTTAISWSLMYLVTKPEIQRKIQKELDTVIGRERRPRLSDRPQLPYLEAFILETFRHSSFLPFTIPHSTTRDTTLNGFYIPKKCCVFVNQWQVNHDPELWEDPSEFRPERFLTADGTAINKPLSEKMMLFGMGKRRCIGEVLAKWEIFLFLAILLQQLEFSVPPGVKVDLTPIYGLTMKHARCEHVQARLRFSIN

[9] = test system: Eurofins safety screen panel; details: at 10 μM
[10] = biological target: CYP2C9 (Homo sapiens, UniProt P11712)
[11] = biological target: T3, CYP2C8 (Homo sapiens, UniProt P10632)
T3 sequence (P10632 1-490): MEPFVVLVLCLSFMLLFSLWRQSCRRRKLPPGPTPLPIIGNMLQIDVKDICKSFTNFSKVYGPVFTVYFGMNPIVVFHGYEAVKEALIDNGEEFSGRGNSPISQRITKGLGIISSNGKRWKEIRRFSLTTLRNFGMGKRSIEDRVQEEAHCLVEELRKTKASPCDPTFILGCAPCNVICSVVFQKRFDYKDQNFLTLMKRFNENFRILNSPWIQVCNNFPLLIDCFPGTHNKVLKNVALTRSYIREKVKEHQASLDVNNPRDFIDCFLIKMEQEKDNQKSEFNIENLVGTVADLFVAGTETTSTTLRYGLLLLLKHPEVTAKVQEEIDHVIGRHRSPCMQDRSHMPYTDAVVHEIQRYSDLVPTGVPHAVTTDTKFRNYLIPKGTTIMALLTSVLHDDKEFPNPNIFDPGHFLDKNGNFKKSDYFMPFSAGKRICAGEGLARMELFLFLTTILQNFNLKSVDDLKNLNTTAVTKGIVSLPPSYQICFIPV

[12] = test system: major CYP enzymes; test: CYP time-dependent inhibition
[13] = biological target: T4, CYP2B6 (Homo sapiens, UniProt P20813); test: CYP inhibition; type: in vitro ADME
T4 sequence (P20813 1-491): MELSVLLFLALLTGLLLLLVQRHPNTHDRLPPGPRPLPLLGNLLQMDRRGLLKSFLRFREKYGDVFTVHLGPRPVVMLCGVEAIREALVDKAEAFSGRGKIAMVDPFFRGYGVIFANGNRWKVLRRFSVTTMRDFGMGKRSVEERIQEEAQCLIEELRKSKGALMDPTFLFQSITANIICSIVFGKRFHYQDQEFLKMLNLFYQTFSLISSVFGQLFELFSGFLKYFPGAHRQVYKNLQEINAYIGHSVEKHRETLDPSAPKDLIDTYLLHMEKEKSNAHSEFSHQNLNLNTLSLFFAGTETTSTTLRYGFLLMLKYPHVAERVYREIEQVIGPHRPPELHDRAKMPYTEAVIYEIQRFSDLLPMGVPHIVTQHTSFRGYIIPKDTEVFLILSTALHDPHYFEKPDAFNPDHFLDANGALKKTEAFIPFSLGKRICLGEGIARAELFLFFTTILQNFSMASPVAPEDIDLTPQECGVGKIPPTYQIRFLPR

[14] = biological target: CYP2C19 (Homo sapiens, UniProt P33261)
[15] = Dynamic moisture sorption test; type: physicochemical; details: 90% relative humidity, 25 °C

Sequence of CYP2C19 (P33261 whole entry): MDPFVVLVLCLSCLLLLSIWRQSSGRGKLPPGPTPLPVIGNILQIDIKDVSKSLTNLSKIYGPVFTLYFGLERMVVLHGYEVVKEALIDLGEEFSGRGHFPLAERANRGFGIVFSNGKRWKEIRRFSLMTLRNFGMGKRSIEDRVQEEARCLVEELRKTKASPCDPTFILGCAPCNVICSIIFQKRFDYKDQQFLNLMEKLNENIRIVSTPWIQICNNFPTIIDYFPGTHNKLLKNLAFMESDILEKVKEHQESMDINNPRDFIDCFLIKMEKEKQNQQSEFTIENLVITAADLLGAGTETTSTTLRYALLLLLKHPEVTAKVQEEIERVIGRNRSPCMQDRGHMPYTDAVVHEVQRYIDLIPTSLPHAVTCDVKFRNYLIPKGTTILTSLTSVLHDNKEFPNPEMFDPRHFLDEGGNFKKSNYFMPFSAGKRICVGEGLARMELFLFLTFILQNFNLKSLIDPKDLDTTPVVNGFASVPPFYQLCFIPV
Sequence of CYP2C9 (P11712 whole entry): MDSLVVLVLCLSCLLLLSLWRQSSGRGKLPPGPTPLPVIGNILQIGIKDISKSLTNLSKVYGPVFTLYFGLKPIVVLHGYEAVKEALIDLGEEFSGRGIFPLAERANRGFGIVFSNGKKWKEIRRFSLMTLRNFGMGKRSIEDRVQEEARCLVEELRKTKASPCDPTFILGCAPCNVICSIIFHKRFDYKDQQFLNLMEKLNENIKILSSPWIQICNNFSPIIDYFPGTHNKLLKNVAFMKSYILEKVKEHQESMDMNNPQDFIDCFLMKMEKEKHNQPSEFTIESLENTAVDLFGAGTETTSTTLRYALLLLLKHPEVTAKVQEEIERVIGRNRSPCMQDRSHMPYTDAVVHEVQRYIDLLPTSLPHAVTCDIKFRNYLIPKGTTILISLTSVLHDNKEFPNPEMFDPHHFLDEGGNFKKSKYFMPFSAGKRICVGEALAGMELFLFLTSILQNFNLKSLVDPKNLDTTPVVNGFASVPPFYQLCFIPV
Sequence of CYP2D6 (P10635 whole entry): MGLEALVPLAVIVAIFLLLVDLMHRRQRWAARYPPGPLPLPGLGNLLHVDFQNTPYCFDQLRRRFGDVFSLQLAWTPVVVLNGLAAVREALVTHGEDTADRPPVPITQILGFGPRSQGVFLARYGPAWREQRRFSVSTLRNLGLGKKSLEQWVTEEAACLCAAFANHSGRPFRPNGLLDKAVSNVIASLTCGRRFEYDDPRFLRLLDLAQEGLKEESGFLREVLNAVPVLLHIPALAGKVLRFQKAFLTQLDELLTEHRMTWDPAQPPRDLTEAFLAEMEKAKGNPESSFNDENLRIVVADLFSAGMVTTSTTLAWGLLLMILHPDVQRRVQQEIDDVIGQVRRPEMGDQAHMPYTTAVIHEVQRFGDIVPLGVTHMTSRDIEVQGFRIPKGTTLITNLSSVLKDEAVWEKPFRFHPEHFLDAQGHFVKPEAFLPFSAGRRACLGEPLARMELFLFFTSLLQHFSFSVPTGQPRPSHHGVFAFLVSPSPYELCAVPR
Sequence of CYP3A4 (P08684 whole entry): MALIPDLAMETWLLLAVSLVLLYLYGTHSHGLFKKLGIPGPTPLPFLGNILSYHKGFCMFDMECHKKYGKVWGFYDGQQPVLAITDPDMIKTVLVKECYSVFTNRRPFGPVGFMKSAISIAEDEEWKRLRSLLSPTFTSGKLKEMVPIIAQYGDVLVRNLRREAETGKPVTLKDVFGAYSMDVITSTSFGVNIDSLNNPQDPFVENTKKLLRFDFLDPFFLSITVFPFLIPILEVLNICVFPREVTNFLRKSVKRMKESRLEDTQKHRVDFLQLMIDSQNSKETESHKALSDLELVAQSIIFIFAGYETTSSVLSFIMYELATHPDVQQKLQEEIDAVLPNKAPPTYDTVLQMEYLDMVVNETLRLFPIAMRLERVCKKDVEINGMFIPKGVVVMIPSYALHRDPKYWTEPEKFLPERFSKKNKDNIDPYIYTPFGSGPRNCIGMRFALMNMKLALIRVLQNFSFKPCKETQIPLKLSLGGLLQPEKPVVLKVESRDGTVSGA

- Predicted half-life in human by allometric scaling [1]: 3 h
Structure (SMILES): CNC(=O)c1ccc2c3c1CCN3CCNC2 [7b, N-Methyl-1,2,3,4,6,7-hexahydro-[1,4]diazepino[6,7,1-hi]indole-8-carboxamide]
- Hypophagic effect after preadministration of 5-HT2CR antagonist SB242084 ([2]; 10 mg/kg po, 1 h, SB242084 1 mg/kg PO): blocked

- Selectivity for 5-HT2CR over 5-HT2AR and 5-HT2BR in binding assays ([4]; 125I-DOI binding assay): ~100 fold
Structure (SMILES): O=C(NCCOc1ccccc1)c1ccc2c3c1CCN3CCNC2 [7p, N-(2-Phenoxyethyl)-1,2,3,4,6,7-hexahydro-[1,4]diazepino[6,7,1-hi]indole-8-carboxamide]

- Selectivity for 5-HT2CR over 5-HT2AR and 5-HT2BR in binding assays [4]: > 500 fold
Structure (SMILES): CSCCNC(=O)c1ccc2c3c1CCN3CCNC2 [7j, N-(2-(Methylthio)ethyl)-1,2,3,4,6,7-hexahydro-[1,4]diazepino[6,7,1-hi]indole-8-carboxamide]

Second part, the molecule before the results:

Structure (SMILES): CCC1CN2CCNCc3ccc(C(=O)NC)c1c32 (single isomer, unassigned; (+)) [(+)-19i]
- Papp A→B [3]: 7.73 ×10⁻⁶ cm/s

Structure (SMILES): CCCNC(=O)c1ccc2c3c1C(CC(F)(F)F)CN3CCNC2 (single isomer, unassigned; (+)) [(+)-19c]
- Inhibition of Food Intake at 1 h (%) with 10 mg/kg po ([2]; 10 mg/kg PO): 53 ^c %

Structure (SMILES): CCC1CN2CCNCc3ccc(C(=O)NCC(F)F)c1c32 (single isomer, unassigned; (+)) [(+)-19k, (+)-N-(2,2-Difluoroethyl)-7-ethyl-1,2,3,4,6,7-hexahydro-[1,4]diazepino[6,7,1-hi]indole-8-carboxamide]
- Papp A→B [3]: 12.8 ×10⁻⁶ cm/s
- efflux ratio [3]: 2.16
- Inhibition of Food Intake at 1 h (%), 5 mg/kg dose [2]: 27 ^d %

Structure (SMILES): C[C@H]1CN2CCNCc3ccc(C(=O)NCC(F)F)c1c32 [(+)-19m, (+)-N-(2,2-Difluoroethyl)-7-methyl-1,2,3,4,6,7-hexahydro-[1,4]diazepino[6,7,1-hi]indole-8-carboxamide]
- CL renal [5]: 1.8 mL/h/kg
- IC50 [6]: > 30 µM
- IC50 [7]: > 30 µM
- Predicted half-life in human by allometric scaling [1]: approximately 7 h
- IC50 [8]: > 30 µM
- Rat brain protein-binding: 53%
- Papp A→B [3]: 8.9 ×10⁻⁶ cm/s
- Binding against >140 target Eurofins safety screen panel [9]: < 25%
- IC50 [10]: > 30 µM
- Inhibition of Food Intake at 1 h (%), 5 mg/kg dose [2]: 81 ^d %
- IC50 [11]: > 30 µM
- CYP time-dependent inhibition [12]: no time-dependent inhibition
- IC50 [13]: > 30 µM
- IC50 [14]: > 30 µM

Structure (SMILES): C[C@H]1CN2CCNCc3ccc(C(=O)NCC(F)F)c1c32.Cl [(+)-19m. HCl]
- Weight gain in dynamic moisture sorption test [15]: < 0.1%

Structure (SMILES): CNC(=O)c1ccc2c3c1C(CC(F)(F)F)CN3CCNC2 (single isomer, unassigned; (+)) [(+)-19a]
- Papp A→B [3]: 14.8 ×10⁻⁶ cm/s
